This note sets out measurements from publication PMC2173257 (The Journal of Cell Biology, 2002).

One test deals with Kes1p^LH201/202FN (Saccharomyces cerevisiae, UniProt P35844, L201F/H202N). Put plainly: competitive displacement of photo-probe from purified mutant protein. The format is binding.
The next test has as its target Kes1p (Saccharomyces cerevisiae, UniProt P35844). Put plainly: competitive displacement of [3H]BZDC-PI. The format is binding. A general note: In a radioligand displacement assay an active substance lowers the binding of a labelled ligand.

Regarding PI(4,5)P2, the IC50 was 6.1 µM at Kes1p^LH201/202FN and 1.9 µM on Kes1p.

A word on the IC50: it is the concentration at which inhibition is half-maximal. Low values mean inhibition by little substance, high ones a need for much substance.
